In the supplement of paper PMC10307832:

How the values were obtained:
Assay in all cases: relative viability (nuclei count vs DMSO), 5 days (fraction); higher = more cells survive
NCI-H1437 = system: NCI-H1437
In short: (§1)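 Dosing by pin tool came one day after lung cancer cell lines were seeded in 1536-well plates, using either one drug or a fixed anchor-drug dose plus five library-drug doses (not always all listed) in √10 steps. After 5 days, nuclei were counted on 4× images. Relative viability is treated-well nuclei count divided by vehicle-well nuclei count, and values are medians of duplicate plates.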

COR-L 105 = system: COR-L 105
In short: as §1

NCI-H661 = system: NCI-H661
In short: as §1

NCI-H1975 = system: NCI-H1975
In short: as §1

UMC-11 = system: UMC-11
In short: as §1

NCI-H2023 = system: NCI-H2023
In short: as §1

HCC-78 = system: HCC-78
In short: as §1

LCLC-103H = system: LCLC-103H
In short: as §1

HARA = system: HARA
In short: as §1

NCI-H1944 = system: NCI-H1944
In short: as §1

COR-L23 = system: COR-L23
In short: as §1

NCI-H2085 = system: NCI-H2085
In short: as §1

HCC-44 = system: HCC-44
In short: as §1

NCI-H727 = system: NCI-H727
In short: as §1

NCI-H2405 = system: NCI-H2405
In short: as §1

NCI-H358 = system: NCI-H358
In short: as §1

EPLC-272H = system: EPLC-272H
In short: as §1

NCI-H1792 = system: NCI-H1792
In short: as §1

NCI-H1395 = system: NCI-H1395
In short: as §1

SK-LU-1 = system: SK-LU-1
In short: as §1

HCC-15 = system: HCC-15
In short: as §1

HCC-366 = system: HCC-366
In short: as §1

HCC-827 = system: HCC-827
In short: as §1

O=C(O)CCCCC(CCSCc1ccccc1)SCc1ccccc1 (centres undefined) [CPI-613] + O=C(c1cc(Cc2n[nH]c(=O)c3ccccc23)ccc1F)N1CCN(C(=O)C2CC2)CC1 [Olaparib] (partner 8 µM)
relative viability (NCI-H1437; first compound 5 µM): 0.599
relative viability (NCI-H1437; first compound 15.81 µM): 0.595
relative viability (NCI-H1437; first compound 50 µM): 0.508
relative viability (NCI-H1437; first compound 158.11 µM): 0.112
relative viability (NCI-H1437; first compound 500 µM): 0.0622
relative viability (COR-L 105; first compound 5 µM): 0.78
relative viability (COR-L 105; first compound 15.81 µM): 0.685
relative viability (COR-L 105; first compound 50 µM): 0.739
relative viability (COR-L 105; first compound 158.11 µM): 0.268
relative viability (COR-L 105; first compound 500 µM): 0.28
relative viability (NCI-H661; first compound 5 µM): 0.714
relative viability (NCI-H661; first compound 15.81 µM): 0.726
relative viability (NCI-H661; first compound 50 µM): 0.718
relative viability (NCI-H661; first compound 158.11 µM): 0.399
relative viability (NCI-H661; first compound 500 µM): 0.153
relative viability (NCI-H1975; first compound 5 µM): 0.745
relative viability (NCI-H1975; first compound 15.81 µM): 0.758
relative viability (NCI-H1975; first compound 50 µM): 0.85
relative viability (NCI-H1975; first compound 158.11 µM): 0.563
relative viability (NCI-H1975; first compound 500 µM): 0.099
relative viability (UMC-11; first compound 5 µM): 0.352
relative viability (UMC-11; first compound 15.81 µM): 0.371
relative viability (UMC-11; first compound 50 µM): 0.375
relative viability (UMC-11; first compound 158.11 µM): 0.155
relative viability (UMC-11; first compound 500 µM): 0.115
relative viability (NCI-H2023; first compound 5 µM): 0.47
relative viability (NCI-H2023; first compound 15.81 µM): 0.425
relative viability (NCI-H2023; first compound 50 µM): 0.41
relative viability (NCI-H2023; first compound 158.11 µM): 0.134
relative viability (NCI-H2023; first compound 500 µM): 0.009
relative viability (HCC-78; first compound 15.81 µM): 0.792
relative viability (HCC-78; first compound 50 µM): 0.857
relative viability (HCC-78; first compound 158.11 µM): 0.842
relative viability (HCC-78; first compound 500 µM): 0.711
relative viability (LCLC-103H; first compound 5 µM): 0.755
relative viability (LCLC-103H; first compound 15.81 µM): 0.669
relative viability (LCLC-103H; first compound 50 µM): 0.733
relative viability (LCLC-103H; first compound 158.11 µM): 0.55
relative viability (LCLC-103H; first compound 500 µM): 0.717
relative viability (HARA; first compound 5 µM): 0.509
relative viability (HARA; first compound 15.81 µM): 0.813
relative viability (HARA; first compound 50 µM): 0.772
relative viability (HARA; first compound 158.11 µM): 0.25
relative viability (HARA; first compound 500 µM): 0.0476
relative viability (NCI-H1944; first compound 5 µM): 0.404
relative viability (NCI-H1944; first compound 15.81 µM): 0.401
relative viability (NCI-H1944; first compound 50 µM): 0.491
relative viability (NCI-H1944; first compound 158.11 µM): 0.288
relative viability (NCI-H1944; first compound 500 µM): 0.383
relative viability (COR-L23; first compound 5 µM): 0.369
relative viability (COR-L23; first compound 15.81 µM): 0.299
relative viability (COR-L23; first compound 50 µM): 0.389
relative viability (COR-L23; first compound 158.11 µM): 0.175
relative viability (COR-L23; first compound 500 µM): 0.0294
relative viability (NCI-H2085; first compound 5 µM): 0.745
relative viability (NCI-H2085; first compound 15.81 µM): 0.712
relative viability (NCI-H2085; first compound 50 µM): 0.725
relative viability (NCI-H2085; first compound 158.11 µM): 0.362
relative viability (NCI-H2085; first compound 500 µM): 0.209
relative viability (HCC-44; first compound 5 µM): 0.97
relative viability (HCC-44; first compound 15.81 µM): 0.95
relative viability (HCC-44; first compound 50 µM): 0.925
relative viability (HCC-44; first compound 158.11 µM): 0.629
relative viability (HCC-44; first compound 500 µM): 0.469
relative viability (NCI-H727; first compound 5 µM): 0.783
relative viability (NCI-H727; first compound 15.81 µM): 0.672
relative viability (NCI-H727; first compound 50 µM): 0.631
relative viability (NCI-H727; first compound 158.11 µM): 0.748
relative viability (NCI-H727; first compound 500 µM): 0.678
relative viability (NCI-H2405; first compound 5 µM): 0.89
relative viability (NCI-H2405; first compound 15.81 µM): 0.787
relative viability (NCI-H2405; first compound 50 µM): 0.781
relative viability (NCI-H2405; first compound 158.11 µM): 0.25
relative viability (NCI-H2405; first compound 500 µM): 0.0972
relative viability (NCI-H358; first compound 5 µM): 0.532
relative viability (NCI-H358; first compound 15.81 µM): 0.518
relative viability (NCI-H358; first compound 50 µM): 0.572
relative viability (NCI-H358; first compound 158.11 µM): 0.126
relative viability (NCI-H358; first compound 500 µM): 0.112
relative viability (EPLC-272H; first compound 5 µM): 0.812
relative viability (EPLC-272H; first compound 15.81 µM): 0.683
relative viability (EPLC-272H; first compound 50 µM): 0.653
relative viability (EPLC-272H; first compound 158.11 µM): 0.198
relative viability (EPLC-272H; first compound 500 µM): 0.083
relative viability (NCI-H1792; first compound 5 µM): 0.391
relative viability (NCI-H1792; first compound 15.81 µM): 0.358
relative viability (NCI-H1792; first compound 50 µM): 0.328
relative viability (NCI-H1792; first compound 158.11 µM): 0.0603
relative viability (NCI-H1792; first compound 500 µM): 0.087
relative viability (NCI-H1395; first compound 5 µM): 0.473
relative viability (NCI-H1395; first compound 15.81 µM): 0.479
relative viability (NCI-H1395; first compound 50 µM): 0.469
relative viability (NCI-H1395; first compound 158.11 µM): 0.436
relative viability (NCI-H1395; first compound 500 µM): 0.266
relative viability (SK-LU-1; first compound 5 µM): 0.416
relative viability (SK-LU-1; first compound 15.81 µM): 0.392
relative viability (SK-LU-1; first compound 50 µM): 0.427
relative viability (SK-LU-1; first compound 158.11 µM): 0.352
relative viability (SK-LU-1; first compound 500 µM): 0.238
relative viability (HCC-15; first compound 5 µM): 0.743
relative viability (HCC-15; first compound 15.81 µM): 0.712
relative viability (HCC-15; first compound 50 µM): 0.612
relative viability (HCC-15; first compound 158.11 µM): 0.178
relative viability (HCC-15; first compound 500 µM): 0.0853
relative viability (HCC-366; first compound 5 µM): 0.392
relative viability (HCC-366; first compound 15.81 µM): 0.37
relative viability (HCC-366; first compound 50 µM): 0.41
relative viability (HCC-366; first compound 158.11 µM): 0.0554
relative viability (HCC-366; first compound 500 µM): 0.0079
relative viability (HCC-827; first compound 5 µM): 0.558
relative viability (HCC-827; first compound 15.81 µM): 0.602
relative viability (HCC-827; first compound 50 µM): 0.691
relative viability (HCC-827; first compound 158.11 µM): 0.691
relative viability (HCC-827; first compound 500 µM): 0.538
